Data published in patent US5225411A, “Disubstituted polymethyleneimines” (priority 1990, dated 1993).

Assays:
[1] = tested on: Chinese Hamster Pulmonary Line DC-3F/AD; assay: Increase in the cytotoxicity of actinomycin D on the Chinese hamster pulmonary line DC-3F/AD; format: cell-based; settings: 4 days;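 further: DC-3F/AD is an extremely resistant cell line whose resistance factor exceeds 10,000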
Excerpt: The cytotoxic agent used was actinomycin D.
Line DC-3F/AD is an extremely resistant line. Its resistance factor is higher than 10,000.

line P 388/ADR 10 = assay: Flow cytometry, increase in fluorescence of ADR on the line P 388/ADR 10; format: cell-based, murine; settings: ADR 50 μM, 5 h
Protocol: (§1) By measuring that fluorescence it is possible to obtain a relative measurement of the intracellular concentration of ADR.
(§2) […] After 5 hours' incubation, the intracellular uptake of adriamycin was evaluated by FCM.
(§3) The analysis of each of the samples was carried out on a total of 10,000 cells at a speed of 1000 cells/sec.
(§4) The results were presented in the form of linear histograms of the intracellular ADR fluorescence.
(§5) Expression of the Results
(§6) For each of the histograms, the channel mean fluorescence was determined by the apparatus information system. For all experiments:
(§7) A negative control (cells without ADR) fixed the autofluorescence threshold.
(§8) A positive control (cells with ADR) determined the MEAN value=MN1.
(§9) The "test" tubes (cells with ADR and with compound) were used to determine, for each of the compounds and at each of the concentrations, the MEAN values=MN2.
(§10) The results are expressed in the form of variations from the mean fluorescence obtained for each of the "test" tubes (MN2) in relation to the mean fluorescence obtained with the […] (MNl) : VAR-MEAN=MN2 -MN1. The parameter expressed is thus the increase in the fluorescence of adriamycin in the presence of the tested compounds.

[2] = tested on: murine leukaemia P 388/ADR 10; assay: Evaluation of the increase in cytotoxicity of adriamycin on the line P 388/ADR-10 in vitro (reversion factor); format: cell-based; settings: adriamycin, P 388/ADR-10, 48 h, TOX = toxic
Protocol: In this study, the cytotoxicity of adriamycin was measured in the absence and in the presence of the reversing compound.
The compounds tested for their capacity to reverse MDR are added at the same time as the cytotoxic agent. The cells are then incubated for 48 hours.

line DC-3F/AD = assay: Flow cytometry, increase in fluorescence of ADR on the line DC-3F/AD; format: cell-based, Chinese Hamster; settings: ADR 50 μM, 5 h
Protocol: as §1, §2, §3, §4, §5, §6, §7, §8, §9, §10

Compound | Reversion Factor (RF) ([1]; compound 5 μM) | Reversion Factor (RF) ([1]; compound 10 μM) | Reversion Factor (RF) ([1]; compound 20 μM) | Increase in fluorescence of ADR (VAR-MEAN = MN2 - MN1) (line P 388/ADR 10; compound 2 μM) | Increase in fluorescence of ADR (VAR-MEAN = MN2 - MN1) (line P 388/ADR 10; compound 5 μM) | Increase in fluorescence of ADR (VAR-MEAN = MN2 - MN1) (line P 388/ADR 10; compound 10 μM) | Increase in fluorescence of ADR (VAR-MEAN = MN2 - MN1) (line P 388/ADR 10; compound 20 μM) | Reversion Factor (RF) ([2]; compound 2.5 μM) | Reversion Factor (RF) ([2]; compound 5 μM) | Reversion Factor (RF) ([2]; compound 10 μM) | Increase in fluorescence of ADR (VAR-MEAN = MN2 - MN1) (line DC-3F/AD; compound 2 μM) | Increase in fluorescence of ADR (VAR-MEAN = MN2 - MN1) (line DC-3F/AD; compound 5 μM) | Increase in fluorescence of ADR (VAR-MEAN = MN2 - MN1) (line DC-3F/AD; compound 10 μM) | Increase in fluorescence of ADR (VAR-MEAN = MN2 - MN1) (line DC-3F/AD; compound 20 μM) | Reversion Factor (RF) ([1]; compound 2.5 μM)
CN(C)CCCN1c2ccccc2Sc2ccc(Cl)cc21 [CHLOROPROMAZINE] | < 13 | < 12 | < 13 | 3.30 | 5.15 | 4.60 | 6.20 |  |  |  |  |  |  |  | 
COc1ccc([C@@H]2Sc3ccccc3N(CCN(C)C)C(=O)[C@@H]2OC(C)=O)cc1 [DILTIAZEM] | < 11 | < 10 | < 11 | 3.10 | 6.65 | 13.45 | 23.15 |  |  |  |  |  |  |  | 
OCCN(CCO)c1nc(N2CCCCC2)c2nc(N(CCO)CCO)nc(N3CCCCC3)c2n1 [DIPYRIDAMOLE] | < 12 | < 11 | < 12 | 2.35 | 7.55 | 21.75 | 40.00 |  |  |  |  |  |  |  | 
C=CCNc1nc(NCC=C)nc(N2CCC(SCCC(c3ccccc3)c3ccccc3)CC2)n1 [Example 2, 1-[4,6-bis(allylamino)-2-s-triazinyl]-4-(3,3-diphenylpropylthio)piperidine] | 17 | 171 |  |  |  |  |  | 15.4 | 65.1 | 86.4 | 0.2 | 10.4 | 25.1 | 35.0 | 
Fc1ccc(C(c2ccc(F)cc2)N2CCN(C/C=C/c3ccccc3)CC2)cc1 [FLUNARIZINE] | < 13 | 16 | TOX | 7.35 | 10.10 | 19.90 | 41.00 |  |  | 25 |  |  |  |  | 
COC(=O)C1=C(C)NC(C)=C(C(=O)OC)C1c1ccccc1[N+](=O)[O-] [NIFEDIPINE] |  |  |  | 0.00 | 0.80 | 5.95 | 3.40 |  |  |  |  |  |  |  | 
c1ccc2c(c1)Nc1ccccc1S2 [PHENOTHIAZINE] | < 12 | < 12 | < 12 | 0.00 | 0.00 | 0.00 | 0.00 | 9.4 | 23.1 |  |  |  |  |  | 
O=c1[nH]c2ccccc2n1C1CCN(CCCC(c2ccc(F)cc2)c2ccc(F)cc2)CC1 [PIMOZIDE] | 28 | 78 | TOX | 25.60 | 49.42 | 73.13 | 73.64 |  |  |  | 5.85 | 8.85 | 15.65 | 21.60 | < 10
CC(=O)[C@H]1CC[C@H]2[C@@H]3CCC4=CC(=O)CC[C@]4(C)[C@H]3CC[C@]12C [PROGESTERONE] | < 10 | < 10 | 13 | 1.85 | 1.00 | 6.85 | 11.80 |  | 1.7 | 2.5 |  |  |  |  | 
CCN(CC)CCCC(C)Nc1c2ccc(Cl)cc2nc2ccc(OC)cc12 (stereo not drawn) [QUINACRINE] | < 13 | < 12 | TOX | 11.83 | 15.73 | 27.73 | 52.77 |  |  |  | 2.00 | 10.5 | 19.1 | 25.8 | 
C=C[C@H]1C[N@@]2CC[C@H]1C[C@@H]2[C@@H](O)c1ccnc2ccc(OC)cc12 [QUINIDINE] | < 12 | < 12 | < 12 | 6.65 | 12.80 | 22.00 | 29.90 |  | 6 | 17.4 |  |  |  |  | 
C=C[C@H]1C[N@@]2CC[C@H]1C[C@H]2[C@H](O)c1ccnc2ccc(OC)cc12 [QUININE] | < 10 | < 10 | < 11 | 4.85 | 5.40 | 12.00 | 18.90 |  |  | 14.5 |  |  |  |  | 
CN1CCN(CCCN2c3ccccc3Sc3ccc(C(F)(F)F)cc32)CC1 [TRIFLUOPERAZINE] | < 12 | 38 | TOX | 11.45 | 14.75 | 34.55 | 51.05 |  |  |  | 0.00 | 0.00 | 4.10 | 13.40 | 
COC(=O)[C@@H]1[C@H]2C[C@H]3c4[nH]c5ccccc5c4CCN3C[C@@H]2CC[C@@H]1O [YOHIMBINE] | < 12 | < 12 | < 12 | 2.30 | 0.05 | 4.70 | 3.45 |  |  |  |  |  |  |  | 
COc1ccc(CCN(C)CCCC(C#N)(c2ccc(OC)c(OC)c2)C(C)C)cc1OC (stereo not drawn) [reference compound] |  |  |  | 9.89 | 21.90 | 39.62 | 56.50 |  |  |  | 2.00 | 2.60 | 7.55 | 11.45 | 
